Source: patent publication US12281149B2, “Modulators of G-protein coupled receptors” (priority 2021, dated 2025)
*1 amine or outer side, *2 acyl side, *3 side chain or, on linkers, in order; H or OH if unused. Where a SMILES comes first, the peptide text is derived from it. Side-chain parts run from the residue outwards. [ ]: non-standard residue; d: D form. The star is where a group is joined. Isobutyryl(2-(3-CN-5-F-Ph)) = CC(C)(C(=O)*)c1cc(F)cc(C#N)c1; C20 diacid = O=C(O)CCCCCCCCCCCCCCCCCCC(=O)*; C18 diacid = O=C(O)CCCCCCCCCCCCCCCCC(=O)*; γGlu = O=C(O)[C@H](CCC(=O)[*:2])N[*:1]; Trx = NC[C@H]1CC[C@H](C(=O)O)CC1; X80 = CC1CC(C(=O)*)(n2cccn2)CCO1; d(β3hD) = NC(CC(=O)O)CC(=O)O; AEEA = NCCOCCOCC(=O)O; Aib = CC(C)(N)C(=O)O; βAla = NCCC(=O)O

Experiments:
Format in all cases: cell-based
GLP-1 receptor [1] = biological target: T1, GLP-1 receptor (Homo sapiens, UniProt P43220); test: HitHunter cAMP assay, GLP-1 receptor; details: for EC50: CHO cells stably expressing human GLP-1 receptor, cAMP accumulation, 30 min, read-out: EC50 GLP-1R; for Emax: CHO cells, cAMP, normalized to maximum signal from GLP-1 (high) and DMSO (low), read-out: Emax GLP-1R
GIP receptor [2] = biological target: T2, GIP receptor (Homo sapiens, UniProt P48546); test: HitHunter cAMP assay, GIP receptor; details: for EC50: CHO cells stably expressing GIP receptor, cAMP accumulation, 30 min, read-out: EC50 GIP-1R; for Emax: CHO cells, cAMP, normalized to maximum signal from GIP (high) and DMSO (low), read-out: Emax GIP-1R
T2 sequence (P48546 22-466): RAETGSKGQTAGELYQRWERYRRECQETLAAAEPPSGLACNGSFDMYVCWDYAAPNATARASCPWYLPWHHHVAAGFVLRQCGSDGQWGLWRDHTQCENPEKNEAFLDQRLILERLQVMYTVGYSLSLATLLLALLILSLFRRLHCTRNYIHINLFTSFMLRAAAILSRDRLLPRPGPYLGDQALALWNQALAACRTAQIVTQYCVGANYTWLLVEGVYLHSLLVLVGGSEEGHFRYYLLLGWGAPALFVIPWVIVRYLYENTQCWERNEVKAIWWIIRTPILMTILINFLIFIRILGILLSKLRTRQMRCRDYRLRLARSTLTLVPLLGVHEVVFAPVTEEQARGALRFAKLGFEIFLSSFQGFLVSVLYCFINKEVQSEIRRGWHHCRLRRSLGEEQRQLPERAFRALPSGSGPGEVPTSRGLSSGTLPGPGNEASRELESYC

GLP-1 receptor [3] = biological target: T1, GLP-1 receptor; test: PathHunter β-arrestin assay, GLP-1 receptor; set-up: host or cells: PathHunter CHO-K1 GLP1R β-Arrestin Cell Line; details: β-arrestin-2 recruitment, PathHunter CHO-K1 GLP1R β-Arrestin Cell Line, 90 min at 37° C.; normalized to GLP-1; read-out: GLP-1R β Arrestin EC50
GIP receptor [4] = biological target: T2, GIP receptor; test: PathHunter β-arrestin assay, GIP receptor; set-up: host or cells: PathHunter CHO-K1 GIPR β-Arrestin Cell Line; details: β-arrestin-2 recruitment, PathHunter CHO-K1 GIPR β-Arrestin Cell Line, 90 min at 37° C.; normalized to GIP; read-out: GIPR β Arrestin EC50

T1 sequence (P43220 24-463): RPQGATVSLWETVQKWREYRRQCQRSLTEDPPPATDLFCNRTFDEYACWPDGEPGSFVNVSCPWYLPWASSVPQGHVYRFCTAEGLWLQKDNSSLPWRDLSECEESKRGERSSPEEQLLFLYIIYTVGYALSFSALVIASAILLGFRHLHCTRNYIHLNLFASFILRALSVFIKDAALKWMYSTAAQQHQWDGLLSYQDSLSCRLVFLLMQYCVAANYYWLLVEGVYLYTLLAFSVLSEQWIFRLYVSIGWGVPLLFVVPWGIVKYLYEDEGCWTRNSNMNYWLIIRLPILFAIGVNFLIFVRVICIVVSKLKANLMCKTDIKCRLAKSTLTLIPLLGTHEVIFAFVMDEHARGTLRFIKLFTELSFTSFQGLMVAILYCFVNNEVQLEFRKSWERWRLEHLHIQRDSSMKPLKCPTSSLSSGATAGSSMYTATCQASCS

CC[C@H](C)[C@H](NC(=O)[C@H](CO)NC(=O)[C@H](Cc1ccc(O)cc1)NC(=O)[C@H](CC(=O)O)NC(=O)[C@H](CO)NC(=O)[C@@H](NC(=O)[C@H](Cc1ccccc1)NC(=O)[C@@H](NC(=O)CNC(=O)[C@H](CCC(=O)O)NC(=O)CCNC(=O)C(C)(C)c1cc(F)cc(C#N)c1)[C@@H](C)O)[C@@H](C)O)C(=O)N[C@@H](Cc1ccc(O)cc1)C(=O)N[C@@H](CC(C)C)C(=O)N[C@@H](CC(=O)O)C(=O)N[C@@H](CCCCN)C(=O)N[C@@H](CCC(N)=O)C(=O)N[C@@H](C)C(=O)N[C@@H](C)C(=O)NC(C)(C)C(=O)N[C@@H](CCC(=O)O)C(=O)N[C@@H](Cc1ccccc1)C(=O)N[C@H](C(=O)N[C@@H](CCCCNC(=O)COCCOCCNC(=O)COCCOCCNC(=O)CC[C@H](NC(=O)CCCCCCCCCCCCCCCCCCC(=O)O)C(=O)O)C(=O)N[C@@H](Cc1c[nH]c2ccccc12)C(=O)N[C@@H](CC(C)C)C(=O)N[C@@H](CC(C)C)C(=O)N[C@@H](C)C(=O)NCC(=O)NCC(=O)N1CCC[C@H]1C(=O)N[C@@H](CO)C(=O)N[C@@H](CO)C(=O)NCC(=O)N[C@@H](C)C(=O)N1CCC[C@H]1C(=O)N1CCC[C@H]1C(=O)N1CCC[C@H]1C(=O)N[C@@H](CO)C(N)=O)C(C)C [Compound 103] ({Isobutyryl(2-(3-CN-5-F-Ph))-βAla}-EGTFTSDYSIYLDKQAA[Aib]EFVK([AEEA-AEEA-γGlu-C20 diacid])WLLAGGPSSGAPPPS-NH2)
EC50 (GLP-1 receptor [1]): 0.1 to 1 nM | Emax (GLP-1 receptor [1]): 89% | EC50 (GIP receptor [2]): 10 to 100 nM | Emax (GIP receptor [2]): 96% | EC50 (GLP-1 receptor [3]): > 1000 nM | EC50 (GIP receptor [4]): > 1000 nM

CC[C@H](C)[C@H](NC(=O)[C@H](CC(C)C)NC(=O)[C@H](Cc1c[nH]c2ccccc12)NC(=O)[C@H](CCC(N)=O)NC(=O)[C@@H](NC(=O)[C@H](Cc1ccccc1)NC(=O)[C@H](C)NC(=O)[C@H](CCCCNC(=O)COCCOCCNC(=O)COCCOCCNC(=O)CC[C@H](NC(=O)CCCCCCCCCCCCCCCCCCC(=O)O)C(=O)O)NC(=O)[C@H](CCC(N)=O)NC(=O)[C@H](C)NC(=O)[C@@H](NC(=O)[C@H](CCCCN)NC(=O)[C@H](CC(=O)O)NC(=O)[C@H](CC(C)C)NC(=O)C(C)(C)NC(=O)[C@@H](NC(=O)[C@H](CO)NC(=O)[C@H](Cc1ccc(O)cc1)NC(=O)[C@H](CC(=O)O)NC(=O)[C@H](CO)NC(=O)[C@@H](NC(=O)[C@H](Cc1ccccc1)NC(=O)[C@@H](NC(=O)CNC(=O)C[C@@H](CC(=O)O)NC(=O)CCNC(=O)C(C)(C)c1cc(F)cc(C#N)c1)[C@@H](C)O)[C@@H](C)O)[C@@H](C)CC)[C@@H](C)CC)C(C)C)C(=O)N[C@@H](C)C(=O)NCC(=O)NCC(=O)N1CCC[C@H]1C(=O)N[C@@H](CO)C(=O)N[C@@H](CO)C(=O)NCC(=O)N[C@@H](C)C(=O)N1CCC[C@H]1C(=O)N1CCC[C@H]1C(=O)N1CCC[C@H]1C(=O)N[C@@H](CO)C(N)=O [Compound 104] ({Isobutyryl(2-(3-CN-5-F-Ph))-βAla}-[d(β3hD)]GTFTSDYSI[Aib]LDKIAQK([AEEA-AEEA-γGlu-C20 diacid])AFVQWLIAGGPSSGAPPPS-NH2)
EC50 (GLP-1 receptor [1]): 100 to 1000 nM | Emax (GLP-1 receptor [1]): 60% | EC50 (GIP receptor [2]): 100 to 1000 nM | Emax (GIP receptor [2]): 66% | EC50 (GLP-1 receptor [3]): > 1000 nM | EC50 (GIP receptor [4]): > 1000 nM

CC[C@H](C)[C@H](NC(=O)[C@H](CC(C)C)NC(=O)[C@H](Cc1c[nH]c2ccccc12)NC(=O)[C@H](CCC(N)=O)NC(=O)[C@@H](NC(=O)[C@H](Cc1ccccc1)NC(=O)[C@H](C)NC(=O)[C@H](CCCCNC(=O)COCCOCCNC(=O)COCCOCCNC(=O)CC[C@H](NC(=O)CCCCCCCCCCCCCCCCCCC(=O)O)C(=O)O)NC(=O)[C@H](CCC(N)=O)NC(=O)[C@H](C)NC(=O)[C@@H](NC(=O)[C@H](CCCCN)NC(=O)[C@H](CC(=O)O)NC(=O)[C@H](CC(C)C)NC(=O)C(C)(C)NC(=O)[C@@H](NC(=O)[C@H](CO)NC(=O)[C@H](Cc1ccc(O)cc1)NC(=O)[C@H](CC(=O)O)NC(=O)[C@H](CO)NC(=O)[C@@H](NC(=O)[C@H](Cc1ccccc1)NC(=O)[C@@H](NC(=O)CNC(=O)[C@H](CCC(=O)O)NC(=O)CCNC(=O)C1(n2cccn2)CCOC(C)C1)[C@@H](C)O)[C@@H](C)O)[C@@H](C)CC)[C@@H](C)CC)C(C)C)C(=O)N[C@@H](C)C(=O)NCC(=O)NCC(=O)N1CCC[C@H]1C(=O)N[C@@H](CO)C(=O)N[C@@H](CO)C(=O)NCC(=O)N[C@@H](C)C(=O)N1CCC[C@H]1C(=O)N1CCC[C@H]1C(=O)N1CCC[C@H]1C(=O)N[C@@H](CO)C(N)=O (stereo partly drawn) [Compound 105] ({X80-βAla}-EGTFTSDYSI[Aib]LDKIAQK([AEEA-AEEA-γGlu-C20 diacid])AFVQWLIAGGPSSGAPPPS-NH2)
EC50 (GLP-1 receptor [1]): 0.1 to 1 nM | Emax (GLP-1 receptor [1]): 95% | EC50 (GIP receptor [2]): 1 to 10 nM | Emax (GIP receptor [2]): 112% | EC50 (GLP-1 receptor [3]): > 1000 nM | EC50 (GIP receptor [4]): > 1000 nM

CC[C@H](C)[C@H](NC(=O)[C@H](CC(C)C)NC(=O)[C@H](Cc1c[nH]c2ccccc12)NC(=O)[C@H](CCC(N)=O)NC(=O)[C@@H](NC(=O)[C@H](Cc1ccccc1)NC(=O)[C@H](C)NC(=O)[C@H](CCCCNC(=O)COCCOCCNC(=O)COCCOCCNC(=O)CC[C@H](NC(=O)CCCCCCCCCCCCCCCCC(=O)O)C(=O)O)NC(=O)[C@H](CCC(N)=O)NC(=O)[C@H](C)NC(=O)[C@@H](NC(=O)[C@H](CCCCN)NC(=O)[C@H](CC(=O)O)NC(=O)[C@H](CC(C)C)NC(=O)C(C)(C)NC(=O)[C@@H](NC(=O)[C@H](CO)NC(=O)[C@H](Cc1ccc(O)cc1)NC(=O)[C@H](CC(=O)O)NC(=O)[C@H](CO)NC(=O)[C@@H](NC(=O)[C@H](Cc1ccccc1)NC(=O)[C@@H](NC(=O)CNC(=O)[C@H](CCC(=O)O)NC(=O)CCNC(=O)C(C)(C)c1cc(F)cc(C#N)c1)[C@@H](C)O)[C@@H](C)O)[C@@H](C)CC)[C@@H](C)CC)C(C)C)C(=O)N[C@@H](C)C(=O)NCC(=O)NCC(=O)N1CCC[C@H]1C(=O)N[C@@H](CO)C(=O)N[C@@H](CO)C(=O)NCC(=O)N[C@@H](C)C(=O)N1CCC[C@H]1C(=O)N1CCC[C@H]1C(=O)N1CCC[C@H]1C(=O)N[C@@H](CO)C(N)=O [Compound 106] ({Isobutyryl(2-(3-CN-5-F-Ph))-βAla}-EGTFTSDYSI[Aib]LDKIAQK([AEEA-AEEA-γGlu-C18 diacid])AFVQWLIAGGPSSGAPPPS-NH2)
EC50 (GLP-1 receptor [1]): 0.1 to 1 nM | Emax (GLP-1 receptor [1]): 97% | EC50 (GIP receptor [2]): 10 to 100 nM | Emax (GIP receptor [2]): 98% | EC50 (GLP-1 receptor [3]): > 1000 nM | EC50 (GIP receptor [4]): > 1000 nM

CC[C@H](C)[C@H](NC(=O)[C@H](CC(C)C)NC(=O)[C@H](Cc1c[nH]c2ccccc12)NC(=O)[C@H](CCC(N)=O)NC(=O)[C@@H](NC(=O)[C@H](Cc1ccccc1)NC(=O)[C@H](C)NC(=O)[C@H](CCCCNC(=O)CC[C@H](NC(=O)CC[C@H](NC(=O)CC[C@H](NC(=O)[C@H]1CC[C@H](CNC(=O)CCCCCCCCCCCCCCCCCCC(=O)O)CC1)C(=O)O)C(=O)O)C(=O)O)NC(=O)[C@H](CCC(N)=O)NC(=O)[C@H](C)NC(=O)[C@@H](NC(=O)[C@H](CCCCN)NC(=O)[C@H](CC(=O)O)NC(=O)[C@H](CC(C)C)NC(=O)C(C)(C)NC(=O)[C@@H](NC(=O)[C@H](CO)NC(=O)[C@H](Cc1ccc(O)cc1)NC(=O)[C@H](CC(=O)O)NC(=O)[C@H](CO)NC(=O)[C@@H](NC(=O)[C@H](Cc1ccccc1)NC(=O)[C@@H](NC(=O)CNC(=O)[C@H](CCC(=O)O)NC(=O)CCNC(=O)C(C)(C)c1cc(F)cc(C#N)c1)[C@@H](C)O)[C@@H](C)O)[C@@H](C)CC)[C@@H](C)CC)C(C)C)C(=O)N[C@@H](C)C(=O)NCC(=O)NCC(=O)N1CCC[C@H]1C(=O)N[C@@H](CO)C(=O)N[C@@H](CO)C(=O)NCC(=O)N[C@@H](C)C(=O)N1CCC[C@H]1C(=O)N1CCC[C@H]1C(=O)N1CCC[C@H]1C(=O)N[C@@H](CO)C(N)=O [Compound 107] ({Isobutyryl(2-(3-CN-5-F-Ph))-βAla}-EGTFTSDYSI[Aib]LDKIAQK([γGlu-γGlu-γGlu-Trx-C20 diacid])AFVQWLIAGGPSSGAPPPS-NH2)
EC50 (GLP-1 receptor [1]): 0.1 to 1 nM | Emax (GLP-1 receptor [1]): 95% | EC50 (GIP receptor [2]): 1 to 10 nM | Emax (GIP receptor [2]): 106% | EC50 (GLP-1 receptor [3]): > 1000 nM | EC50 (GIP receptor [4]): < 1000 nM
